Measurements reported in paper PMC10223062, “Discovery of Novel Thiophene/Hydrazones: In Vitro and In Silico Studies against Pancreatic Cancer” (Pharmaceutics, 2023).
Structures can show the parent of a compound that is named as a salt.

What was measured:
MIA PaCa-2 cell line = experiment: 2D anticancer activity, MTT assay; type: cell-based; settings: Homo sapiens, 72 h exposure, read-out: IC50 in 2D cultured MIA PaCa-2 cell line
Procedure: (§1) For the preliminary assessment of anticancer activity in a 2D cell culture system, an MIA PaCa-2 human pancreas epithelial carcinoma (CRL-1420™) cell line (ATCC, Manassas, VA, USA) was cultured in Dulbecco’s Modified Eagle Medium with 10% fetal bovine serum (FBS, v/v) (Gibco, Billings, MT, USA) and supplemented with 1% antibiotics (10,000 μg/mL streptomycin and 10,000 U/mL penicillin) (Gibco, Billings, MT, USA) at 37 °C in a humidified 5% CO2 atmosphere. For the in vitro modeling of the tumor microenvironment, compounds were also tested in a 3D spheroid test system. For this purpose, the MIA PaCa-2 human pancreas epithelial carcinoma (CRL-1420™) cell line and human dermal fibroblast cell line HDF (PCS-201-012) cells were used.
For the assessment of anticancer activity of the compounds, the MIA PaCa-2 cells were plated in 48-well microplates at 1.5 × 10^5 cells/mL and incubated for 24 h at 37 °C in 5% CO2 in accordance with a previously reported method. Following the day, the cells were treated with compounds in various concentrations between 0.1–100 µM dissolved in dimethyl sulfoxide (DMSO) (Sigma Aldrich, St. Louis, MO, USA). Following the 72 h of incubation, culture mediums were discarded and 0.5 mg/mL 3-(4,5-Dimethylthiazol-2-yl)-2,5-Diphenyltetrazolium Bromide (MTT) (Sigma Aldrich, St. Louis, MO, USA) was added to each well for an additional 2 h at 37 °C. After 2 h incubation, the medium was discarded and 100 µL of isopropanol (Sigma Aldrich, St. Louis, MO, USA) was added to the wells to dissolve formazan crystals. The optical density was measured at 570 nm wavelength using a microplate reader (Thermo Fisher Scientific Multiskan, Finland). Doxorubicin hydrochloride (DOX) (European Pharmacopoeia standard, Sigma) was used as internal positive control, and 0.5% DMSO (v/v) was used as negative control. The percentage of cell viability was determined by using the following equation:(1) Viability %=(Absorbancecompound)/(Absorbancenegative control)×100%

5-LOX = target: T1, 5-LOX (Homo sapiens, UniProt P09917); experiment: Fluorometric 5-LOX inhibitor screening kit; type: biochemical; settings: for 5-LOX Percent of İnhibition: at 10 µM
T1 construct: purchased MyBioSource
T1 sequence (P09917 1-674): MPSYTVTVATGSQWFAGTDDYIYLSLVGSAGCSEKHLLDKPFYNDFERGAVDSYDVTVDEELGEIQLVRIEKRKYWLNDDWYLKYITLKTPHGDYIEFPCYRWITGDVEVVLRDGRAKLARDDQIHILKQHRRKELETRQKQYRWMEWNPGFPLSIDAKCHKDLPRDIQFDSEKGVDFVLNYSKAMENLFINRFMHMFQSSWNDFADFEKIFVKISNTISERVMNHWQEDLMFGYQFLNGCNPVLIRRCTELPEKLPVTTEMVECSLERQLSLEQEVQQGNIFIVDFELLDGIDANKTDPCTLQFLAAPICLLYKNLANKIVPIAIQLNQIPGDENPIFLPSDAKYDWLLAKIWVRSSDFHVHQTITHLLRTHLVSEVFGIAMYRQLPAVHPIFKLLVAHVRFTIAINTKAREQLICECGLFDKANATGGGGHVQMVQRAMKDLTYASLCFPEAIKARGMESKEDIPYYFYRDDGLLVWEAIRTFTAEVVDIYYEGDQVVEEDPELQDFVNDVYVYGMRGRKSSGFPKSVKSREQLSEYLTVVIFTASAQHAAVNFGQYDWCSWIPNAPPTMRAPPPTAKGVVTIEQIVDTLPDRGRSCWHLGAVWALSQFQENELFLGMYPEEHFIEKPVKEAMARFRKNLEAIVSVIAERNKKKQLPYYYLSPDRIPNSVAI
Procedure: COX-1 and COX-2 inhibitory activities were tested using fluorometric COX-1 and COX-2 inhibitor screening kits (Abcam, United Kingdom), and the 5-LOX inhibitory activity was tested using a fluorometric 5-LOX inhibitor screening kit (MyBioSource, USA). These assays are based on the fluorometric detection of Prostaglandin G2 (a product generated by the COX enzyme) or on the fluorometric detection of the intermediate generated by the 5-LOX enzyme. The experiments were conducted in accordance with the manufacturers’ instructions.
For the determination of 5-LOX inhibitory activity, tested compounds were dissolved in DMSO (5 mM stock solution) and then diluted with the same solvent to obtain the test solutions. Test solutions were added to wells in an amount of 2 µL in the final 100 µL reaction volume. […] EC, SC, IC, and all test solutions were analyzed in triplicate.

COX-2 = target: T2, COX-2 (Homo sapiens, UniProt P35354); experiment: Fluorometric COX-2 inhibitor screening kit; settings: at 10 µM
T2 sequence (P35354 18-604): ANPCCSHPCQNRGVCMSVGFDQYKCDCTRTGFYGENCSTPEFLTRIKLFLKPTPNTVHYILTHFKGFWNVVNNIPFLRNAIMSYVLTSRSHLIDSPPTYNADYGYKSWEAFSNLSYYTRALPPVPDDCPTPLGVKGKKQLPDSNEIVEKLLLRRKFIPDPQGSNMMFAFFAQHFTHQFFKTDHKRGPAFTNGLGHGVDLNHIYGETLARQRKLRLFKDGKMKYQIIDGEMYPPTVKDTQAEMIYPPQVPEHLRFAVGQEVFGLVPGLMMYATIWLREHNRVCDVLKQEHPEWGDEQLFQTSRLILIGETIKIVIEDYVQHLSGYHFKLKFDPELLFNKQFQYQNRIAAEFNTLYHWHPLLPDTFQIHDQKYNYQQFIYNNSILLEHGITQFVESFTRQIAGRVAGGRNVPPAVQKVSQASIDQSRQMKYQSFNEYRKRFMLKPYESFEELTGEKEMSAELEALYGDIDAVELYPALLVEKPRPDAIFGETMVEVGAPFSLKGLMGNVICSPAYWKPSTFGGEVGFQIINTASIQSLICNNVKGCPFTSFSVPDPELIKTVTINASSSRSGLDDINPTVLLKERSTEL
Procedure: For the determination of COX-1 and COX-2 inhibitory activity, the tested compounds were dissolved in dimethyl sulfoxide (DMSO, 5 mM stock solution) and then diluted with the same solvent to obtain the test solutions. The test solutions were further diluted 5× with COX Assay Buffer (2 µL of test solution: 8 µL COX Assay Buffer). […] Solvent Control (SC) was prepared by adding 2 µL DMSO and 8 µL COX Assay Buffer, while Sample (S) and Enzyme Control (EC) were prepared by adding 10 µL of diluted test solution and COX Assay Buffer, respectively, into assigned wells.

[1] = tested on: MIA PaCa-2 tumor spheroids; experiment: 3D spheroid formation/growth assay; type: cell-based, human; set-up: Spheroid Diameter Day 0 / Spheroid Diameter Day 9: unit not given here; settings: for Spheroid Diameter Day 0: Day 0 (baseline)
Procedure: as §1
For 3D spheroid formation, the MIA PaCa-2 cells (PC cell line) and HDF cells were used according to the 3D Bioprinting method. To better simulate the tumor microenvironment, PC cells were mixed (1:1) with human fibroblasts. Briefly, the MIA PaCa-2 cells and human fibroblasts at 70–80% confluency were added to a 6-well plate and incubated with biocompatible NanoShuttle TM-PL (Bioprinting Kit, Greiner Bio-One, Germany) overnight at 37 °C in a humidified 5% CO2 atmosphere. After the nanoparticles were taken up by the cells, they were resuspended and seeded into an ultra-low attachment 96-well plate at a volume of 100 μL (2000 PC cells and 2000 human fibroblasts per well) volume. The plate was placed on a magnetic drive and incubated at 37 °C in a humidified 5% CO2 atmosphere until spheroids were formed. After two days of incubation, the spheroids were photographed using light microscopy (Carl Zeiss Primo Vert, Germany). Fresh medium containing 0.1, 1, 10, and 100 µM of tested compound was added to the wells. Photos were taken every 72 h, and the medium was replaced every 72 h. The effect of the tested compounds in 3D PC cell cultures was examined by measuring the size change of spheroids using ImageJ software (ImageJ 2.0 software, USA).

HaCaT cell line = experiment: Cell viability (cytotoxicity) in healthy cells, MTT assay; type: cell-based, human; settings: Homo sapiens, HaCaT; MTT, 72 h, healthy keratinocytes; read-out: IC50 in 2D cultured HaCaT cell line
Procedure: HaCaT human healthy keratinocyte cells (CRL-2404™) (ATCC, Manassas, VA, USA) were cultured in DMEM (10% FBS, v/v) (Gibco, Billings, MT, USA), respectively and supplemented with 1% antibiotics (10.000 μg/mL streptomycin and 10.000 units/mL penicillin) (Gibco, Billings, MT, USA) at 37 °C in a humidified atmosphere of 5% CO2. For the preliminary assessment of the cytotoxicity of selected potent compounds in healthy cells, HaCaT cells were seeded 2 × 10^5 cells/mL in 96-well plate and incubated for 24 h. The following day the 7a, 7d, and 7f compounds were applied similarly as in the MIA PaCa-2 cytotoxicity protocol between concentrations 0.62–100 µM for 72 h and then MTT was applied.

Row | melting point | IC50 (MIA PaCa-2 cell line) | IC50 (5-LOX) | 5-LOX Percent of İnhibition (5-LOX) | COX-2 Percent of İnhibition (COX-2) | SMILES | Spheroid Diameter Day 0 ([1]; 0.1 µM group) | Spheroid Diameter Day 9 ([1]; 0.1 µM) | Spheroid Diameter Day 0 ([1]; 1 µM group) | Spheroid Diameter Day 9 ([1]; 1 µM) | Spheroid Diameter Day 0 ([1]; 10 µM group) | Spheroid Diameter Day 9 ([1]; 10 µM) | Spheroid Diameter Day 0 ([1]; 100 µM group) | Spheroid Diameter Day 9 ([1]; 100 µM) | Spheroid state at the end of the 9 days ([1]; 10–100 µM) | Spheroid state at the end of the 9 days ([1]; 100 µM) | IC50 (HaCaT cell line) | Reduction in spheroid size ([1]; 10 µM, after 9 days of treatment)
1 | 253 °C | 24.2 ± 3.76 µM | – | 20.38 ± 1.98% | 11.41 ± 3.40% | COc1ccc(/C=N/NC(=O)c2cc(-c3ccccc3)c(-c3ccccc3)s2)cc1OC [7g, N’-[(E)-(3,4-dimethoxyphenyl)methylidene]-4,5-diphenylthiophene-2-carbohydrazide] | 1222.5 ± 28.73 | 5969.0 ± 59.6 | 985.5 ± 65.7 | 3318.0 ± 35.4 | – | – | – | – | disintegrated | – | – | –
2 | 245 °C | > 100 µM | – | 19.87 ± 1.62% | 8.35 ± 0.93% | COc1ccc(/C=N/NC(=O)c2cc(-c3ccccc3)c(-c3ccccc3)s2)c(OC)c1OC [7h, N’-[(E)-(2,3,4-trimethoxyphenyl)methylidene]-4,5-diphenylthiophene-2-carbohydrazide] | 1125.5 ± 28.9 | 5215 ± 18.3 | 1220.5 ± 31.5 | 6682.5 ± 7.1 | 1192.0 ± 24.7 | 8165.5 ±18.1 | 942.0 ± 58.9 | 7936.5 ± 48.6 | – | – | – | –
3 | 254 °C | > 100 µM | – | 27.23 ± 0.64% | 13.27 ± 0.73% | COc1cc(/C=N/NC(=O)c2cc(-c3ccccc3)c(-c3ccccc3)s2)cc(OC)c1OC [7i, N’-[(E)-(3,4,5-trimethoxyphenyl)methylidene]-4,5-diphenylthiophene-2-carbohydrazide] | 1135.5 ± 2.5 | 5523.0 ± 15.2 | 943.0 ± 12.1 | 3539.0 ± 25.4 | – | 2764.0 ± 37.9 | 1023.0 ± 59.5 | 2776.5 ± 85.2 | – | – | – | –

The remaining lines, values behind:

Row | SMILES | melting point | IC50 (MIA PaCa-2 cell line) | IC50 (5-LOX) | 5-LOX Percent of İnhibition (5-LOX) | COX-2 Percent of İnhibition (COX-2) | Spheroid Diameter Day 0 ([1]; 0.1 µM group) | Spheroid Diameter Day 9 ([1]; 0.1 µM) | Spheroid Diameter Day 0 ([1]; 1 µM group) | Spheroid Diameter Day 9 ([1]; 1 µM) | Spheroid Diameter Day 0 ([1]; 10 µM group) | Spheroid Diameter Day 9 ([1]; 10 µM) | Spheroid Diameter Day 0 ([1]; 100 µM group) | Spheroid Diameter Day 9 ([1]; 100 µM) | Spheroid state at the end of the 9 days ([1]; 10–100 µM) | Spheroid state at the end of the 9 days ([1]; 100 µM) | IC50 (HaCaT cell line) | Reduction in spheroid size ([1]; 10 µM, after 9 days of treatment)
4 | O=C(N/N=C/c1cccc(O)c1)c1cc(-c2ccccc2)c(-c2ccccc2)s1 [7b, N’-[(E)-(3-hydroxyphenyl)methylidene]-4,5-diphenylthiophene-2-carbohydrazide] | 225 °C | 9.09 ± 1.11 µM | 93.2 ± 9.89 µM | 25.77 ± 2.54% | 24.13 ± 1.55% | 1193.0 ± 13.1 | 5922.5 ± 39.8 | 1185.5 ± 82.7 | 6461.5 ± 59.6 | 969.3 ± 28.9 | 4192.0 ± 44.8 | 644.7 ± 26.9 | 1050.5 ± 18.9 | – | – | – | –
5 | O=C(N/N=C/c1ccc2c(c1)OCO2)c1cc(-c2ccccc2)c(-c2ccccc2)s1 [7j, N’-[(E)-(2H-1,3-benzodioxol-5-yl)methylidene]-4,5-diphenylthiophene-2-carbohydrazide] | 262 °C | 9.65 ± 0.22 µM | – | 36.10 ± 3.92% | 16.64 ± 1.11% | 1112.0 ± 35.4 | 6291.5 ± 45.87 | 998.0 ± 11.5 | 5934.0 ± 96.3 | 1068.0 ± 68.1 | 5217.4 ± 25.7 | – | – | – | disintegrated | – | –
6 | COc1cccc2c1C(=O)c1c(O)c3c(c(O)c1C2=O)C[C@@](O)(C(=O)CO)C[C@@H]3O[C@H]1C[C@H](N)[C@H](O)[C@H](C)O1 [DOX, Doxorubicin hydrochloride, reference compound] | – | 0.35 ± 0.18 µM | – | – | – | – | – | – | – | – | – | – | – | – | – | 0.11 ± 0.08 µM | 24%
7 | CC(c1cc2ccccc2s1)N(O)C(N)=O (stereo not drawn) [Zileuton, reference compound] | – | – | – | 64.85 ± 0.39% | – | – | – | – | – | – | – | – | – | – | – | – | –
